# Assay results reported in patent US9326994B2, “Amine functional polyamides” (GENZYME CORPORATION, priority 2013, dated 2016).
# Columns and labels:
# Format in all cases: cell-based
# [1] = system: renal proximal tubule epithelial cells (RPTEC); test: in vitro
# Description: (§1) Cells were plated at 3,000 cells/well (RPTEC) or 5,000 cells/well (NHDF) in 96-well plates and incubated overnight at 37° C. The compounds were added to the wells, and the cells were incubated for 4 days. Alomar Blue was added to one set of plates and incubated for 4 hours. The plates were read when the compound was added (time zero) and at the end of the study. Fluorescence was read using 530 nm (excitation) and 590 nm (emission) according to the manufacturer's instructions.
# [2] = system: normal human dermal fibroblasts (NHDF)
# Description: as §1, with “Mammalian cell cytotoxicity assays were performed using two primary human cell lines: renal proximal tubule epithelial cells (RPTEC—Cambrex CC-2553) and normal human dermal fibroblasts (NHDF—Cambrex CC-2509). Cells” for “Cells”
# [3] = system: Staphylococcus aureus subsp. aureus; test: Minimum inhibitory concentration assay; details: Mueller-Hinton broth, 18-24 hours at 35° C.; unit assumed
# Description: (§2) The minimum inhibitory concentration (MIC) assay determines the lowest concentration of an antimicrobial agent required to inhibit the growth of test organisms after incubation. MIC assays were performed against an internal standard panel of organisms to identify compounds with antimicrobial activity. The MIC assay was subsequently repeated against other specialized microbial panels. Assays were conducted against the following clinically relevant microorganisms: Staphylococcus aureus subsp. aureus, Staphylococcus epidermis, Escherichia coli, Pseudomonas aeruginosa, Haemophilius influenzae. The compounds were tested for bacteriocidal activity, time course of killing, toxicity against tissue culture cells grown in vitro, and in some cases were tested for antimicrobial activity in vivo. The MIC assays were performed according to the Performance Standards for Antimicrobial Susceptibility Testing, 2006, vol. M100-S15, Fifteenth Informational Supplement, NCCLS, 940 West Valley Road, Suite 1400, Wayne, Pa. 19087. […] The solution was then filter-sterilized through a 0.22 μm filter. Two-fold serial dilutions of polymer were prepared in Mueller-Hinton broth with cations aliquotted into 96-well microtiter plates. The plates were then inoculated with 5×10^5 cells/mL of target organism and incubated 18-24 hours at 35° C. […] The MIC value is the lowest concentration of compound that inhibits growth; accordingly, a higher MIC value indicates less potency where a lower MIC valued indicated more potency.
# Escherichia coli = test: Minimum inhibitory concentration assay; details: Mueller-Hinton broth, 18-24 hours at 35° C.; unit assumed
# Description: as §2
# Haemophilus influenzae = test: Minimum inhibitory concentration assay; details: Mueller-Hinton broth, 18-24 hours at 35° C.; unit assumed
# Description: as §2
# Pseudomonas aeruginosa = test: Minimum inhibitory concentration assay; details: Mueller-Hinton broth, 18-24 hours at 35° C.; unit assumed
# Description: as §2
# Staphylococcus epidermis = test: Minimum inhibitory concentration assay; details: Mueller-Hinton broth, 18-24 hours at 35° C.; unit assumed
# Description: as §2
# [4] = system: human lung epithelial Carcinoma cell line (A 549); test: Cytotoxicity assay, human lung epithelial cells; design: unit not given here; details: A 549, 96 hours, CellTiter-Glo
# erythrocytes = test: Erythrocyte lysis assay; details: overnight 37° C., hematocrit 1%
# Description: After incubation, the plates were centrifuged and the supernatant transferred to flat-bottomed 96-well plates. The supernatant was assayed using the QuantiChrom Hemoglobin kit according to the manufacturer's instructions. The IC50 values were calculated using GraphPad Prism.
# in vitro = details: human
# Description: as §1
molecule,measurement,setting,value
"Poly(piperazinebispropanoic acid-3,3′ diamino-N-methyl-dipropylamine)",Cytotoxicity (Kidney Epithelial IC50),[1],5.3 µg/mL
"Poly(4,4′-dipiperidinebispropionic acid-1,3-diaminopropane)",Cytotoxicity (Human Dermal Fibroblast IC50),[2],7
"Poly(piperazinebispropanoic acid-1,4-diaminobutane)",Cytotoxicity (Human Dermal Fibroblast IC50),[2],1905
"Poly(4,4′-trimethylenedipiperidinebispropionic acid-bis(4-aminobutyl)ether)",Cytotoxicity (Human Dermal Fibroblast IC50),[2],3
"Poly(piperazinebispropanoic acid-2,2-diaminodiethylamine)",Cytotoxicity (Human Dermal Fibroblast IC50),[2],1111.6
"Poly(4,4′-dipiperidinebispropionic acid-1,4-diaminobutane)",Cytotoxicity (Human Dermal Fibroblast IC50),[2],5
"Poly(4,4-trimethylene dipiperidinebispropanoic acid 4,4′-dipiperidine)",Cytotoxicity (Human Dermal Fibroblast IC50),[2],2.0
"Poly(4,4′-trimethylene dipiperidinebispropanoic acid-1,4-benzyldiamine)",Cytotoxicity (Human Dermal Fibroblast IC50),[2],4.703
"Poly(4,4-trimethylene dipiperidinebispropanoic acid-diaminopropane)",Cytotoxicity (Human Dermal Fibroblast IC50),[2],141.3
"Poly(4,4′-dipiperidinebispropanoic acid-3,3′-diamino-dipropylamine) [Poly(4,4′-dipiperidinebispropanoic acid-3,3′-diamino-dipropy]",Cytotoxicity (Human Dermal Fibroblast IC50),[2],2
"4,4′-trimethylene dipiperidinebispropanoic acid-diaminopropane pentamer",Staphylococcus aureus subsp. aureus (MIC),[3],16 µg/mL
same,Escherichia coli (MIC),Escherichia coli,16 µg/mL
same,Haemophilus influenzae (MIC),Haemophilus influenzae,64 µg/mL
same,Pseudomonas aeruginosa (MIC),Pseudomonas aeruginosa,> 128 µg/mL
same,Staphylococcus epidermis (MIC),Staphylococcus epidermis,1 µg/mL
same,Lung Epi IC50,[4],259.0
same,Erythrocyte Lysis (Hemolysis IC50),erythrocytes,>3200
"Poly(piperazinebispropanoic acid-N(3-aminopropyl)1,3-propanediamine)",Cytotoxicity (Human Dermal Fibroblast IC50),[2],15.3
"Poly(piperazinebispropanoic acid-N-methyl-2,2-diaminodiethylamine)",Cytotoxicity (Human Dermal Fibroblast IC50),[2],3068.6
"Methyl ester terminated Poly(4,4-trimethylene dipiperidinebispropanoic acid-diaminopropane)",Cytotoxicity (Kidney Epithelial IC50),[1],1.5 µg/mL
"Poly(4,4′-trimethylenedipiperidinebispropionic acid-2-dydroxy 1,3-diaminopropane)",Cytotoxicity (Human Dermal Fibroblast IC50),[2],50
"Carboxy terminated Poly(4,4-trimethylene dipiperidinebispropanoic acid-diaminopropane)",Cytotoxicity (Kidney Epithelial IC50),[1],43 µg/mL
"Poly(4,4′-dipiperidinebispropanoic acid-3,3′-diamino-N-methyl-dipropylamine) [Poly(4,4′-dipiperidinebispropanoic acid-3,3′-diamino-N-methy] [listing 1 of 2 here]",Cytotoxicity (Human Dermal Fibroblast IC50),[2],3
"4-guanidinobenzene terminated Poly(4,4-trimethylene dipiperidinebispropanoic acid-diaminopropane)",Cytotoxicity (Kidney Epithelial IC50),[1],6 µg/mL
"Poly(4,4′-dipiperidinebispropanoic acid-3,3′-diamino-N-methyl-dipropylamine) [Poly(4,4′-dipiperidinebispropanoic acid-3,3′-diamino-N-methy] [listing 2 of 2 here]",Cytotoxicity (Human Dermal Fibroblast IC50),[2],2
"Poly(4,4-trimethylene dipiperidinebispropanoic acid-N(2-aminoethyl)-diaminoethane)",Cytotoxicity (Human Dermal Fibroblast IC50),[2],1.7
"NCCCNC(=O)CCN1CCC(CCCC2CCN(CCC(=O)NCCCN)CC2)CC1 [4,4-trimethylene dipiperidinebispropanoic acid-diaminopropane]",CC50 at 4 days,in vitro,> 512 µg/mL
same,IC50 at 4 days,"in vitro; RPTEC, 4 days incubation, Alomar Blue, read-out: Cytotoxicity (Kidney Epithelial IC50)",> 512 µg/mL
same,Staphylococcus aureus subsp. aureus (MIC),[3],> 128 µg/mL
same,Escherichia coli (MIC),Escherichia coli,> 128 µg/mL
same,Haemophilus influenzae (MIC),Haemophilus influenzae,> 128 µg/mL
same,Pseudomonas aeruginosa (MIC),Pseudomonas aeruginosa,> 128 µg/mL
same,Staphylococcus epidermis (MIC),Staphylococcus epidermis,> 128 µg/mL
same,IC50,"erythrocytes; Erythrocyte, read-out: Erythrocyte Lysis (Hemolysis IC50)",> 3200 µg/mL
"Poly (4,4′-trimethylene dipiperidine bispropanoic acid--N,N′-dimethyl-1,3-diaminopropane)",Cytotoxicity (Human Dermal Fibroblast IC50),[2],5
"Poly(4,4′-trimethylenedipiperidine-1,3-diamninopropane-N,N′-di-3-propionic acid)",Cytotoxicity (Kidney Epithelial IC50),[1],2 µg/mL
same,Cytotoxicity (Human Dermal Fibroblast IC50),[2],2
"Poly(4,4-trimethylene dipiperidine bispropanoic acid-diaminoethane)",Cytotoxicity (Human Dermal Fibroblast IC50),[2],178
"4,4′-trimethylene dipiperidinebispropanoic acid-diaminopropane heptamer",Cytotoxicity (Kidney Epithelial IC50),[1],190 µg/mL
same,Staphylococcus aureus subsp. aureus (MIC),[3],2 µg/mL
same,Escherichia coli (MIC),Escherichia coli,8 µg/mL
same,Haemophilus influenzae (MIC),Haemophilus influenzae,128 µg/mL
same,Pseudomonas aeruginosa (MIC),Pseudomonas aeruginosa,> 128 µg/mL
same,Staphylococcus epidermis (MIC),Staphylococcus epidermis,1 µg/mL
same,Lung Epi IC50,[4],418.0
same,Erythrocyte Lysis (Hemolysis IC50),erythrocytes,>3200
"Poly (4,4′-trimethylene dipiperidine bispropanoic acid-4,4′-trimethylene dipiperidine)",Cytotoxicity (Human Dermal Fibroblast IC50),[2],3
